Legend:
C57BL/6 mice = assay: Plasma metabolite levels in mice after a single 1 mg/kg oral gavage dose of NTBC (GC/MS and LC/MS/MS); assay type: in vivo; conditions: single aqueous 1 mg/kg dose by oral gavage, plasma 6 h following dosing, male C57BL/6 mice
Protocol: For example, six male C57BL/6 mice (20-25 gm, 8-9 weeks age) were administered a single aqueous 1 mg/kg dose of NTBC by oral gavage. Plasma samples were taken 6 h following dosing. […] We conclude that NTBC can be used to reduce plasma BCAA levels in mice. It should be noted that an early study reported that plasma BCAA levels were unaffected after dosing rats with 10 mg/kg NTBC for 11 weeks (Lock et al., 1996).
The dosing solutions were prepared the day of study dosing, approximately one hour prior to dosing. Compound 1 is nitisinone (also referred to herein as “NTBC”).
54 C56BL/6 mice were housed for at least 3 days prior to dosing and were fully acclimated at study start. All mice were ad libitum fed throughout the study. Water was given ad libitum throughout the holding and study periods. Body weight was measured prior to dosing. Dosing for Group 2 and 3 occurred once on the day of study.
Blood collection (approximately 600 μL) was into pre-chilled (0-4° C.) K3-EDTA containing polypropylene blood collection tubes. After blood collection, blood samples were maintained chilled (2-6° C.) and centrifuged within 30 minutes. […]
Samples were extracted and split into equal parts for analysis on GC/MS and LC/MS/MS platforms. Proprietary software was used to match ions to a library of standards for metabolite identification and for metabolite quantitation by peak area integration.

patients = patients taking the drug; cited from earlier work

Compound	reduction of plasma levels of valine, isoleucine and leucine (BCAAs) (C57BL/6 mice)	patients who suffer gastrointestinal side effects (patients)
O=C1CCCC(=O)C1C(=O)c1ccc(C(F)(F)F)cc1[N+](=O)[O-] [Compound 1, nitisinone]	greater than 25%	
CN(C)C(=N)N=C(N)N [metformin]		More than 60%

— patent publication US20150238441A1, “Modulation of Branched Amino Acid Concentrations to Treat Metabolic Diseases” (UNIVERSITY OF ROCHESTER, priority 2012, published 2015)
